Holding throughout (test): DTP human tumour cell line panel, 48 h
Assay [1] deals with NCI-H226.
Assay [2] relates to TK-10.
Assay [3] has as its system OVCAR-4.
The subject of assay [4] is SK-OV-3.
Assay [5] concerns MDA-MB-231.
The test system of assay [6] is MDA-N.
In assay [7] the test system is M14.
The test system of assay [8] is SK-MEL-28.
Assay [9] relates to SNB-19.
Assay [10] relates to SK-MEL-2.
In assay [11] the test system is HOP-18.
The test system of assay [12] is SNB-75.
In assay [13] the test system is EKVX.
Assay [14] relates to CAKI-1.
Assay [15] relates to MDA-MB-435.
Assay [16] has as its system SF-295.
For assay [17], the system named is A549.
Assay [18] has as its system HCT-15.
The test system of assay [19] is KM12.
Assay [20] relates to SN12C.

1 compound from ChEMBL document CHEMBL1201862, “PubChem BioAssay data set” (2004) can be followed below.

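1) Cells in 96-well plates. 2) Compound, 48 h, 5 concentrations. 3) Linear interpolation between surrounding doses. 4) Unreached endpoint = highest concentration. GI50: concentration for 50% inhibition of growth.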 The source made the active and inactive calls. Rule as the data show it: active = GI50 up to about 1.1 µM and inactive = higher.

In general, GI50 refers to the concentration giving 50% growth inhibition. Turning to `CN(N=O)C(=O)N[C@H]1C(O)O[C@H](CO)[C@@H](O)[C@@H]1O` (stereo not given in full), the GI50 in [1] was 596 µM (inactive); in [2] it was > 750 µM (inactive); in [3], 590 µM (inactive); in assay [4], 571 µM (inactive); in assay [5], > 750 µM (inactive); in assay [6], > 750 µM (inactive). For the same compound, the GI50 in [7] is > 750 µM (inactive); in assay [8], 611 µM (inactive); in [9], 565 µM (inactive); in assay [10] it was 647 µM (inactive); in assay [11], 222 µM (inactive); in assay [12] it was 484 µM (inactive). Also, the GI50 is 643 µM (inactive) in assay [13]; 429 µM (inactive) in assay [14]; 515 µM (inactive) in [15]; 589 µM (inactive) in [16]; 571 µM (inactive) in [17]; 622 µM in assay [18]. The GI50 in assay [19] is 625 µM (inactive); in assay [20] it was 581 µM (inactive).
